Measurements taken from the supplement of paper PMC10307832.

Legend:
Assay in all cases: relative viability (nuclei count vs DMSO), 5 days (fraction); higher = more cells survive
[1] = compound: NCC(=O)Nc1ccc(-n2nc(C(F)(F)F)cc2-c2ccc3c(ccc4ccccc43)c2)cc1 + O=C(c1cc(Cc2n[nH]c(=O)c3ccccc23)ccc1F)N1CCN(C(=O)C2CC2)CC1 [Olaparib] (partner 8 µM)
Method in brief: (§1)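 Each reported value is a median over duplicate plates. It expresses relative viability: treated-well nuclei count divided by vehicle-well nuclei count. Lung cancer cell lines in 1536-well plates were dosed by pin tool a day after seeding, alone with one drug or with a fixed anchor-drug dose plus five library-drug doses (not always all listed) in √10 steps, and nuclei were counted after 5 days.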

[2] = compound: C1CSC2=C(C(=O)N1)SC3=C2C=C(C=C3)O [kb NB 142-70] + COc1cc2c(Oc3ccc(NC(=O)C4(C(=O)Nc5ccc(F)cc5)CC4)cc3F)ccnc2cc1OCCCN1CCOCC1 [Foretinib] (partner 0.25 µM)
Method in brief: as §1

[3] = compound: NCC(=O)Nc1ccc(-n2nc(C(F)(F)F)cc2-c2ccc3c(ccc4ccccc43)c2)cc1 + COc1cccc2cc(-c3nc([C@H]4CC[C@H](C(=O)O)CC4)n4ncnc(N)c34)[nH]c12 [OSI-027] (partner 0.5 µM)
Method in brief: as §1

[4] = compound: NCC(=O)Nc1ccc(-n2nc(C(F)(F)F)cc2-c2ccc3c(ccc4ccccc43)c2)cc1 + CS(=O)(=O)N1CCN(Cc2cc3nc(-c4cccc5[nH]ncc45)nc(N4CCOCC4)c3s2)CC1 [Pictilisib] (partner 1 µM)
Method in brief: as §1

Cell Line | relative viability ([1]; first compound 0.02 µM) | relative viability ([1]; first compound 0.06325 µM) | relative viability ([1]; first compound 0.2 µM) | relative viability ([1]; first compound 0.6325 µM) | relative viability ([1]; first compound 2 µM) | relative viability ([2]; first compound 0.1 µM) | relative viability ([2]; first compound 1 µM) | relative viability ([2]; first compound 3.162 µM) | relative viability ([3]; first compound 0.02 µM) | relative viability ([3]; first compound 0.06325 µM) | relative viability ([3]; first compound 0.2 µM) | relative viability ([3]; first compound 0.6325 µM) | relative viability ([3]; first compound 2 µM) | relative viability ([4]; first compound 0.02 µM) | relative viability ([4]; first compound 0.06325 µM) | relative viability ([4]; first compound 0.2 µM) | relative viability ([4]; first compound 0.6325 µM) | relative viability ([4]; first compound 2 µM)
201T | 0.867 | 0.868 | 0.856 | 0.879 | 0.844 | 1.07 | 1.17 | 1.08 | 0.806 | 0.769 | 0.724 | 0.649 | 0.606 | 0.664 | 0.655 | 0.68 | 0.734 | 0.687
A549 | 0.294 | 0.291 | 0.339 | 0.29 | 0.239 | 0.997 | 0.95 | 0.563 |  |  |  |  |  | 0.459 | 0.495 | 0.564 | 0.565 | 0.517
A-427 | 0.701 | 0.742 | 0.679 | 0.776 | 0.781 | 1.14 | 1.25 | 0.929 |  | 0.454 | 0.438 | 0.496 | 0.457 | 0.595 | 0.726 | 0.744 | 0.739 | 0.815
ABC-1 | 0.594 | 0.671 |  | 0.921 | 0.78 | 1.11 | 0.979 | 0.677 | 0.558 | 0.409 |  | 0.471 | 0.542 | 0.808 | 0.81 |  | 0.745 | 0.563
BEN | 1 | 1.23 | 0.993 | 1.21 | 1.03 | 0.535 | 0.648 | 0.486 | 0.281 | 0.32 | 0.296 | 0.326 | 0.297 | 0.54 | 0.581 | 0.55 | 0.547 | 0.576
CAL-12T | 0.761 | 0.735 | 0.659 | 0.711 | 0.765 | 1.03 | 1.18 | 0.837 | 0.619 | 0.651 | 0.644 | 0.604 | 0.621 | 0.392 | 0.617 | 0.481 | 0.404 | 0.475
COR-L23 | 0.368 | 0.368 | 0.352 | 0.393 | 0.366 | 1.06 | 1.04 | 0.457 | 0.765 | 0.894 | 0.836 | 0.693 | 0.755 | 0.712 | 0.767 | 0.95 | 0.798 | 0.613
COR-L 105 | 0.696 | 0.772 | 0.75 | 0.766 | 0.638 | 1.11 | 1.03 | 1 | 0.593 | 0.626 | 0.623 | 0.776 | 0.6 | 0.426 | 0.357 | 0.423 | 0.363 | 0.391
Calu-6 | 0.568 | 0.578 | 0.553 | 0.562 | 0.571 | 0.809 | 0.896 | 0.54 |  |  |  |  |  | 0.849 | 0.891 | 0.975 | 0.949 | 0.93
ChaGo-K-1 | 0.443 | 0.488 | 0.388 | 0.443 | 0.405 | 0.89 | 0.967 | 0.862 | 0.475 | 0.661 | 0.468 | 0.592 | 0.548 | 0.617 | 0.784 | 0.394 | 0.676 | 1.04
EBC-1 | 0.693 | 0.774 | 0.836 | 0.623 | 0.7 | 0.0986 | 0.12 | 0.0991 |  |  |  |  |  | 0.324 | 0.37 | 0.434 | 0.36 | 0.404
EKVX | 0.973 | 0.966 | 0.882 | 0.935 | 1.13 | 0.834 | 0.903 | 0.86 | 0.729 | 0.646 | 0.673 | 0.674 | 0.737 | 0.531 | 0.493 | 0.466 | 0.45 | 0.531
EMC-BAC-2 | 0.433 | 0.514 | 0.539 | 0.483 | 0.5 | 0.994 | 1.01 | 0.581 | 0.292 | 0.367 | 0.371 | 0.361 | 0.387 | 0.509 | 0.558 | 0.558 | 0.545 | 0.506
EPLC-272H | 0.731 | 0.699 | 1.05 | 0.848 | 0.851 | 0.696 | 0.725 | 0.255 | 0.307 | 0.246 | 0.28 | 0.311 | 0.274 | 0.28 | 0.378 | 0.285 | 0.344 | 0.319
H3255 | 0.593 | 0.593 | 0.577 | 0.607 | 0.622 | 0.742 | 0.946 | 1.05 | 0.557 | 0.617 | 0.629 | 0.667 | 0.596 | 0.553 | 0.527 | 0.493 | 0.467 | 0.513
HARA | 1.07 | 1.25 | 0.762 | 0.982 | 1.06 | 0.771 | 0.521 | 0.867 | 0.434 | 0.582 | 0.597 | 0.549 | 0.596 | 0.418 | 0.355 | 0.486 | 0.568 | 0.559
